This passage reports IC50 results from PMC6264460, “Lead Generation and Optimization Based on Protein-Ligand Complementarity” (Molecules, 2010).

The structures appear in SMILES notation.

The test addresses T1, JNK3 (Homo sapiens, UniProt P53779).
T1 construct: made in house
Put plainly: Inhibition of ATP hydrolysis by JNK3 (coupled NADH oxidation assay). The note with it: ATP hydrolysis by JNK3, 100 nM JNK3, pH 7.6, 1% DMSO. The class given is biochemical. An excerpt:
To measure the inhibitory activity of the Z1208, we used the following assay system: adenosine triphosphate (ATP), phosphoenolpyruvate (PEP), nicotinamide adenine dinucleotide (NADH), and a solution mixture of pyruvate kinase and L-lactate dehydrogenase (PK-L-LDH) were purchased from Roche Diagnostics. Other reagents were purchased from Sigma-Aldrich. JNK3 was expressed and purified by the method of Xie et al.. After a purification step, JNK3 was activated by GST-fused MKK7 and further purified against a glutathione-fixed column. […] The conversion of NADH was measured by kinetic monitoring with SpectraMax 190 (Molecular Devices).

T1 sequence (P53779 40-402 limits assumed): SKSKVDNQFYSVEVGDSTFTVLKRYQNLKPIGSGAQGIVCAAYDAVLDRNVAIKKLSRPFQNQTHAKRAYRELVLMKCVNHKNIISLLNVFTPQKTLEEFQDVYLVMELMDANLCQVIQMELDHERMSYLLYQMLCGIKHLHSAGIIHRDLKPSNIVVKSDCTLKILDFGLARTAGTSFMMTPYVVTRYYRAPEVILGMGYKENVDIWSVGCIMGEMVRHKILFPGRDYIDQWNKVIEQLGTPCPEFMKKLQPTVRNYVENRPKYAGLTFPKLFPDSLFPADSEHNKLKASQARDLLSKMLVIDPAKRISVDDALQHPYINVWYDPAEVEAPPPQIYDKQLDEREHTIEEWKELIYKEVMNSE

`CN1c2c[nH]nc2C(O)=C(C(=O)Nc2ccc(Cl)c(Cl)c2)S1(=O)=O` [Z1208-8] showed a 50% inhibitory concentration (IC50) of 62.9 µM. This lies in the double-digit micromolar range.

In general, IC50 refers to the point on the concentration scale where inhibition reaches its midpoint. Lower therefore signals inhibition by little substance.
